From patent US8415469B2, “Compounds and methods for kinase modulation, and indications therefor” (Plexxikon Inc., priority 2005, dated 2013)

Key:
Type in all cases: biochemical
Jnk1 = target: T1, Jnk1 (Homo sapiens, UniProt P45983); test: AlphaScreen kinase assay, Jnk1; conditions: read-out: IC50, activity toward kinase Jnk1
T1 construct: purchased Upstate Biotechnology

c-Raf-1 = target: T2, c-Raf-1 (Homo sapiens, UniProt P04049); test: AlphaScreen kinase assay, c-Raf-1; conditions: read-out: IC50, activity toward kinase c-Raf-1
T2 construct: purchased Upstate Biotechnology
T2 sequence (P04049 whole entry): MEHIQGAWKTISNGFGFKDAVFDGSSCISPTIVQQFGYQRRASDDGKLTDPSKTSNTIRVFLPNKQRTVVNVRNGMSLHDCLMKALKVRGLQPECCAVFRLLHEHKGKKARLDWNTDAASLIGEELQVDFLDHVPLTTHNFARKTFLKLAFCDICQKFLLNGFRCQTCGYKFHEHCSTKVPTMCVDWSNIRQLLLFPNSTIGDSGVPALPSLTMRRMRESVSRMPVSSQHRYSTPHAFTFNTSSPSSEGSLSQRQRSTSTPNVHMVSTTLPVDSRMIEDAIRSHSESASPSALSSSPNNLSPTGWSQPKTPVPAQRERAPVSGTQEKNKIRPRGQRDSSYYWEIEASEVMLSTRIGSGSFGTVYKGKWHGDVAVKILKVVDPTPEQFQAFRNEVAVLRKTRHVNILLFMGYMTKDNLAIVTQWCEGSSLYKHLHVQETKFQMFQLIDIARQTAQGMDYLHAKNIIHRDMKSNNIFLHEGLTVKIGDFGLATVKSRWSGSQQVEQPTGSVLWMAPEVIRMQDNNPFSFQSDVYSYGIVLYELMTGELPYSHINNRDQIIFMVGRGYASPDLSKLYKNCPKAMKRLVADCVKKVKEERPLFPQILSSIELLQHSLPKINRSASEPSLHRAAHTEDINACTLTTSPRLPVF

Fms = target: T3, Fms (Homo sapiens, UniProt P07333); test: AlphaScreen kinase assay, Fms; conditions: read-out: IC50, activity toward kinase Fms
T3 construct: purchased Upstate Biotechnology

B-Raf = target: T4, B-Raf (Homo sapiens, UniProt P15056); test: AlphaScreen kinase assay, B-Raf; conditions: read-out: IC50, activity toward kinase B-Raf
T4 construct: purchased Upstate Biotechnology
T4 sequence (P15056 whole entry): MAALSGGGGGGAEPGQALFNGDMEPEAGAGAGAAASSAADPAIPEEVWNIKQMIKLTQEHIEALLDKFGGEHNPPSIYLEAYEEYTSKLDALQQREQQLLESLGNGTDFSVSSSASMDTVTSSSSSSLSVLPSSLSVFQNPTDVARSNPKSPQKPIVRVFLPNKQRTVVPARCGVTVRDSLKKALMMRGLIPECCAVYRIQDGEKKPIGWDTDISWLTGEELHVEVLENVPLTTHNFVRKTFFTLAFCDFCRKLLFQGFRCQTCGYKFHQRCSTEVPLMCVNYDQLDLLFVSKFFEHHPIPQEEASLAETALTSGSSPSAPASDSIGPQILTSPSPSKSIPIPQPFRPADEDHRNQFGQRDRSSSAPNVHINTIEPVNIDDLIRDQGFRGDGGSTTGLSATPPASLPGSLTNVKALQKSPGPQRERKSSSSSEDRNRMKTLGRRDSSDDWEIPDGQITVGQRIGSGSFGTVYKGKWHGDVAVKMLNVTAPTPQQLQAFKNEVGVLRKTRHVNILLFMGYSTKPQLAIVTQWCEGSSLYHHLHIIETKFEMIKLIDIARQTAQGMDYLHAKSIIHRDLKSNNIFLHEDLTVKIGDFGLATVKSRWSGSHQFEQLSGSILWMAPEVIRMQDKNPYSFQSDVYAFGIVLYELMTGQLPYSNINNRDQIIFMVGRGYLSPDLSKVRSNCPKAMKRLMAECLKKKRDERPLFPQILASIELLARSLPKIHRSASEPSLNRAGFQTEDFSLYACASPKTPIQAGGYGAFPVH

Flt1 = target: T5, Flt1 (Homo sapiens, UniProt P17948); test: AlphaScreen kinase assay, Flt1; conditions: read-out: IC50, activity toward kinase Flt1
T5 construct: P1826.pETN6 BI-PTP FLT1 M799-D1165-X WT; His6 (N); made in house; host or cells: E. coli (PTP1B co-expressed)
T5 sequence (P17948 with tags, fused parts or gaps): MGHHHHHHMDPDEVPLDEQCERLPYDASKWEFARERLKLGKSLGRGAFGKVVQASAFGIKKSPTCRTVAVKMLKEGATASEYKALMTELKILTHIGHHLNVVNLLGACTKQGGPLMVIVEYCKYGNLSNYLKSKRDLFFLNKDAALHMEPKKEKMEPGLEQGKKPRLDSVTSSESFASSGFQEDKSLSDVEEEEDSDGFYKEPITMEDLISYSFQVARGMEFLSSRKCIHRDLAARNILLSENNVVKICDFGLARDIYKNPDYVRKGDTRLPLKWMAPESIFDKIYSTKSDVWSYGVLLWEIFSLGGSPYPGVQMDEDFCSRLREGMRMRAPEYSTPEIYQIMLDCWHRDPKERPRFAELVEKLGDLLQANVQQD

B-Raf V600E = target: T6, B-Raf V600E (Homo sapiens, UniProt P15056, V600E); test: AlphaScreen kinase assay, B-Raf V600E; conditions: read-out: IC50, activity toward kinase B-Raf V600E
T6 construct: P4254. pFastBacBD-CDC37 BRAF D437-K722-X, V600E; His6 with pFastBac HT leader (TEV site) (N); made in house; host or cells: Sf9 (baculovirus; chaperone CDC37 co-expressed)

Fak = target: T7, Fak (Homo sapiens, UniProt Q05397); test: AlphaScreen kinase assay, Fak; conditions: read-out: IC50, activity toward kinase Fak
T7 construct: P1358.pFastBacHtb FAK S411-Q686-X; His6 with pFastBacHTb leader (TEV site) (N); made in house; host or cells: Sf9 (baculovirus)
T7 sequence (Q05397 411-686): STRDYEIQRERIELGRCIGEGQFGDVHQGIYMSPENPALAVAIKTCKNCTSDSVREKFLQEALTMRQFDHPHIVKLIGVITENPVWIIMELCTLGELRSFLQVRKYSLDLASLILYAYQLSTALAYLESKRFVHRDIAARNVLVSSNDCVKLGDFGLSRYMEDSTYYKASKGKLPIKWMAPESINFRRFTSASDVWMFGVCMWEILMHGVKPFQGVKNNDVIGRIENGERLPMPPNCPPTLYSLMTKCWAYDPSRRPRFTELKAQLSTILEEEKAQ

Btk = target: T8, Btk (Homo sapiens, UniProt Q06187); test: Z'-Lyte FRET kinase assay (Invitrogen), Btk; conditions: read-out: IC50, activity toward kinase Btk
T8 construct: purchased Invitrogen (assay run by Invitrogen)
T8 sequence (Q06187 whole entry): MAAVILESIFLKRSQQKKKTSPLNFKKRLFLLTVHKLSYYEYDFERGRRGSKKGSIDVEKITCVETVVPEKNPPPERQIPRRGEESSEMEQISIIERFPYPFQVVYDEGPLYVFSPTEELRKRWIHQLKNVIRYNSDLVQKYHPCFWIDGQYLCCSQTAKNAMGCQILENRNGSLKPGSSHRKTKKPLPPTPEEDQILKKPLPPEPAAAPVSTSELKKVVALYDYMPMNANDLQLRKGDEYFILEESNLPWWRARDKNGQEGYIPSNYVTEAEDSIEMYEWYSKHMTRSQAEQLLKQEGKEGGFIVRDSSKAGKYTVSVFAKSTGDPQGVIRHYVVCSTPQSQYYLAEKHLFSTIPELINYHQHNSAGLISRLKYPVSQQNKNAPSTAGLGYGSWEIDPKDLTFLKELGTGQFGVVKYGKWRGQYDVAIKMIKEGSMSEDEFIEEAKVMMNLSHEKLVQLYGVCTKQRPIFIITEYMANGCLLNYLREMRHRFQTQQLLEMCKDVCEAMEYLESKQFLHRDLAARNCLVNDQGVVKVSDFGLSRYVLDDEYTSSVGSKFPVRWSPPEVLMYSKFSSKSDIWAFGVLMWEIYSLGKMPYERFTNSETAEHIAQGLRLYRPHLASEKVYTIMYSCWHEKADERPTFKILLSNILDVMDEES

FGFR1 = target: T9, FGFR1 (Homo sapiens, UniProt P11362, C488A/C584S); test: AlphaScreen kinase assay, FGFR1; conditions: read-out: IC50, activity toward kinase FGFR
T9 construct: P1351.pET N6 BI-PTP FGFR A458-E765-X C488A, C584S; made in house; host or cells: E. coli (PTP1B co-expressed)
T9 sequence (P11362 458-765 C488A/C584S): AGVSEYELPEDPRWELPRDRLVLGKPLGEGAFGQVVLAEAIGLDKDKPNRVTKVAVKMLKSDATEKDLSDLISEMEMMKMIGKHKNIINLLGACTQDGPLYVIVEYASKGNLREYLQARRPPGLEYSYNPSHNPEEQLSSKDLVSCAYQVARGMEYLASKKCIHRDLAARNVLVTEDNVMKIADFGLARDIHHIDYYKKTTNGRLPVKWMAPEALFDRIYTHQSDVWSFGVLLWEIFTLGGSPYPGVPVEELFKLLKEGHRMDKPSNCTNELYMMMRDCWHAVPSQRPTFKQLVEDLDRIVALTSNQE

Kit = target: T10, Kit (Homo sapiens, UniProt P10721); test: AlphaScreen kinase assay, Kit; conditions: read-out: IC50, activity toward kinase Kit
T10 construct: P1332.N6 BI PTP KIT M552-K948-X COD; His6 (N); made in house; host or cells: E. coli (PTP1B co-expressed)
T10 sequence (P10721 with tags, fused parts or gaps): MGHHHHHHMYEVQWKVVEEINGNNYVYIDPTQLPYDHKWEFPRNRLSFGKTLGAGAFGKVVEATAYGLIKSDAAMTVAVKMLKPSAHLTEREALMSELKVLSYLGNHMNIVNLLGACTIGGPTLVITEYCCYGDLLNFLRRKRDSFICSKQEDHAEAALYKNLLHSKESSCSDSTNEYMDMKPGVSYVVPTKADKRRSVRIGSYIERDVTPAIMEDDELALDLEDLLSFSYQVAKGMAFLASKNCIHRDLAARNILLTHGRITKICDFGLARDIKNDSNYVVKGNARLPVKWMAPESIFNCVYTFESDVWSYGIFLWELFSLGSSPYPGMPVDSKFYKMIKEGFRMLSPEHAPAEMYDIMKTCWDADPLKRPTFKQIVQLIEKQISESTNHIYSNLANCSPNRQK

Src = target: T11, Src (Homo sapiens, UniProt P12931); test: AlphaScreen kinase assay, Src; conditions: read-out: IC50, activity toward kinase Src
T11 construct: P1144. pET-N6 BI-PTP SRC V86-L536-X; made in house
T11 sequence (P12931 with tags, fused parts or gaps): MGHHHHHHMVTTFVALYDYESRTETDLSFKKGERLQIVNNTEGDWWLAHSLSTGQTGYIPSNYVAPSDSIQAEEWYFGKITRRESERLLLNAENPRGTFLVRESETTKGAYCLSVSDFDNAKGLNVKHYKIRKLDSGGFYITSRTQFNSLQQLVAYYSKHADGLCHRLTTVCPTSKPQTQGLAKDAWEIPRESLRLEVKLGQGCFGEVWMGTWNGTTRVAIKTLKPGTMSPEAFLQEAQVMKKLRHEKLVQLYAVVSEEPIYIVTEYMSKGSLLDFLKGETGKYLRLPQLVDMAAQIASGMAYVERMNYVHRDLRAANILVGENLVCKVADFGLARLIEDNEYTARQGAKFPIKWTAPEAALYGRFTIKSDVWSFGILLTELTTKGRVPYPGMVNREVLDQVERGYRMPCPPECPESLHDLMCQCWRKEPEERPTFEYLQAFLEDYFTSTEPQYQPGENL

Ret = target: T12, Ret (Homo sapiens, UniProt P07949); test: AlphaScreen kinase assay, Ret; conditions: read-out: IC50, activity toward kinase Ret
T12 construct: P1378.pET-SF BI-PTP RET H661-R1012 HIS; made in house
T12 sequence (P07949 with tags, fused parts or gaps): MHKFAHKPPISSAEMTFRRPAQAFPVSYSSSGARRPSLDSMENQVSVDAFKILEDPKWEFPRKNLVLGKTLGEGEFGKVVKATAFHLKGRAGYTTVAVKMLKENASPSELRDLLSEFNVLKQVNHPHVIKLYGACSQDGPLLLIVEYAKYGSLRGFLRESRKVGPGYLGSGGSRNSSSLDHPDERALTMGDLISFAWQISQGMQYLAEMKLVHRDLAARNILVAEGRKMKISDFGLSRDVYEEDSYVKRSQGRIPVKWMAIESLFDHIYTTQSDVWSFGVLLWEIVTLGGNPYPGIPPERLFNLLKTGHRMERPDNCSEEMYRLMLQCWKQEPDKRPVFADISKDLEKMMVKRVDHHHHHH

Jnk3 = target: T13, Jnk3 (Homo sapiens, UniProt P53779); test: AlphaScreen kinase assay, Jnk3; conditions: read-out: IC50, activity toward kinase Jnk3
T13 construct: purchased Upstate Biotechnology
T13 sequence (P53779 whole entry): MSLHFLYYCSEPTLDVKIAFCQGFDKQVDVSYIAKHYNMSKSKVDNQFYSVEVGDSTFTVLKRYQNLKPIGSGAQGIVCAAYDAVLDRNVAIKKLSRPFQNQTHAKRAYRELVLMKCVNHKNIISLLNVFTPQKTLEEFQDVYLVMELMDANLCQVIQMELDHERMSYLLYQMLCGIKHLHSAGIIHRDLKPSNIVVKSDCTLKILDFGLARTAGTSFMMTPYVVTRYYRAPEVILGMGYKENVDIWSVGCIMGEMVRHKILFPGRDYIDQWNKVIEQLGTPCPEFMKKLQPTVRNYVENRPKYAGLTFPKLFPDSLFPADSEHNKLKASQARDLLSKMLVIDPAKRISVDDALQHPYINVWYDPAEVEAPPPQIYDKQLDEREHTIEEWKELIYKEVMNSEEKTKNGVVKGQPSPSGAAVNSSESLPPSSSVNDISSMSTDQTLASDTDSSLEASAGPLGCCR

Jnk2 = target: T14, Jnk2 (Homo sapiens, UniProt P45984); test: AlphaScreen kinase assay, Jnk2; conditions: read-out: IC50, activity toward kinase Jnk2
T14 construct: purchased Roche Protein Expression Group (Indianapolis, IN)
T14 sequence (P45984 whole entry): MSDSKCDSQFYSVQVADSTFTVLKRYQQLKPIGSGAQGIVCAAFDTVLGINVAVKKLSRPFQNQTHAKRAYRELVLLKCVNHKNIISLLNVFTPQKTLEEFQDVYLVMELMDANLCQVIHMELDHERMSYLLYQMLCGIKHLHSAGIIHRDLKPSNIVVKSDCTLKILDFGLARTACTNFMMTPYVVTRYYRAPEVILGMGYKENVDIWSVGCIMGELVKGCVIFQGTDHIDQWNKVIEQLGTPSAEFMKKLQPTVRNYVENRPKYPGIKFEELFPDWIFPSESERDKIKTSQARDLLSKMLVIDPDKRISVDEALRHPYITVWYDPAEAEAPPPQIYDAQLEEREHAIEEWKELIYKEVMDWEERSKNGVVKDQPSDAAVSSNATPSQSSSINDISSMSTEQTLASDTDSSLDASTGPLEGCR
Text: AlphaScreen assay was used to screen additional kinases. The assay is similarly dependent on the phosphorylation of a peptide substrate. In this assay, an antibody that recognizes phosphorylated substrate is bound to an acceptor bead. The peptide substrate is attached to biotin, which binds to a donor head that contains streptavidin. Thus phosphorylated substrate is bound by antibody and streptavidin, bringing the donor and acceptor heads into close proximity when kinase is not inhibited. The donor produces singlet oxygen which results in emission from the acceptor when they are in close proximity. Conversely, when kinase is inhibited, the donor and acceptor beads are not associated and the emission from the acceptor is reduced.
AlphaScreen assays were done using compounds dissolved in DMSO to a concentration of 20 mM. The compounds were diluted accordingly to the desired final concentrations in each sample well, using 1:3 serial dilution for a total of 8 concentration points.

T1 sequence (P45983 whole entry): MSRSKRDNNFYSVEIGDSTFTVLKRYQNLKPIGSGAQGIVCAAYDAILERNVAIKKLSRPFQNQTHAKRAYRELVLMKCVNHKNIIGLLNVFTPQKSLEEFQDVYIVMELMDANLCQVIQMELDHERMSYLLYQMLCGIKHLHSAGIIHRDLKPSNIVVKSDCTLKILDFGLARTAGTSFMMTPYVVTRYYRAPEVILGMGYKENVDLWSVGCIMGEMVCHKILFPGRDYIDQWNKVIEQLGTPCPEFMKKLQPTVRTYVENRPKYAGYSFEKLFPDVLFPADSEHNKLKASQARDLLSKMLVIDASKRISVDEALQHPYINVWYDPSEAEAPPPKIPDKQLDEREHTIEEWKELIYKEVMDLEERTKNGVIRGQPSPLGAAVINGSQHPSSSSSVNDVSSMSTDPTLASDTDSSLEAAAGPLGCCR

Structure (SMILES) | IC50 (Jnk1) [µM] | IC50 (c-Raf-1) [µM] | IC50 (Fms) [µM] | IC50 (B-Raf) [µM] | IC50 (Flt1) [µM] | IC50 (B-Raf V600E) [µM] | IC50 (Fak) [µM] | IC50 (Btk) [µM] | IC50 (FGFR1) [µM] | IC50 (Kit) [µM] | IC50 (Src) [µM] | IC50 (Ret) [µM] | IC50 (Jnk3) [µM] | IC50 (Jnk2) [µM]
COc1ccc(C(=O)c2c[nH]c3ncc(-c4cccc(C(N)=O)c4)cc23)c(F)c1 [Compound P-1346] | ≤ 10 | – | ≤ 10 | ≤ 10 | – | ≤ 10 | ≤ 10 | ≤ 10 | ≤ 10 | ≤ 10 | ≤ 10 | – | ≤ 10 | –
O=C(O)/C=C/c1ccc(-c2cnc3[nH]cc(C(=O)c4ccccc4F)c3c2)cc1 [Compound P-1473] | ≤ 10 | – | ≤ 10 | ≤ 10 | – | ≤ 10 | ≤ 10 | ≤ 10 | ≤ 10 | – | ≤ 10 | – | ≤ 10 | –
O=C(Nc1ccc(C(=O)c2c[nH]c3ncccc23)cc1)Nc1cccc(C(F)(F)F)c1 [Compound P-1671] | – | ≤ 10 | ≤ 10 | ≤ 10 | – | ≤ 10 | – | – | – | ≤ 10 | – | – | – | ≤ 10
CCc1ccc(S(=O)(=O)Nc2ccc(F)c(C(=O)c3c[nH]c4ncc(Cl)cc34)c2F)cc1 [Compound P-1700, N-[3-(5-Chloro-1H-pyrrolo[2,3-b]pyridine-3-carbonyl)-2,4-difluoro-phenyl]-4-ethyl-benzenesulfonamide] | – | – | ≤ 10 | ≤ 10 | – | ≤ 10 | – | – | – | ≤ 10 | – | – | – | ≤ 10
O=C(Nc1cccc(C(=O)c2c[nH]c3ncccc23)c1)Nc1ccc(Cl)c(C(F)(F)F)c1 [Compound P-1711, 1-(4-Chloro-3-trifluoromethyl-phenyl)-3-[3-(1H-pyrrolo[2,3-b]pyridine-3-carbonyl)-phenyl]-urea] | – | – | ≤ 10 | ≤ 10 | – | ≤ 10 | – | – | – | ≤ 10 | – | – | – | ≤ 10
CCCCOc1ccc(NC(=O)Nc2cccc(C(=O)c3c[nH]c4ncc(-c5cccnc5)cc34)c2)cc1 [Compound P-1729, 1-(4-Butoxy-phenyl)-3-[3-(5-pyridin-3-yl-1H-pyrrolo[2,3-b]pyridine-3-carbonyl)-phenyl]-urea] | – | – | ≤ 10 | ≤ 10 | – | ≤ 10 | – | – | – | – | – | – | – | ≤ 10
O=C(Nc1cccc(C(=O)c2c[nH]c3ncc(-c4cccnc4)cc23)c1)Nc1cc(C(F)(F)F)ccc1Cl [Compound P-1732, 1-(2-Chloro-5-trifluoromethyl-phenyl)-3-[3-(5-pyridin-3-yl-1H-pyrrolo[2,3-b]pyridine-3-carbonyl)-phenyl]-urea] | – | – | ≤ 10 | ≤ 10 | – | ≤ 10 | – | – | – | – | – | – | – | ≤ 10
O=C(Nc1cccc(C(=O)c2c[nH]c3ncc(Cl)cc23)c1)Nc1ccc(Cl)c(C(F)(F)F)c1 [Compound P-1737, 1-[3-(5-Chloro-1H-pyrrolo[2,3-b]pyridine-3-carbonyl)-phenyl]-3-(4-chloro-3-trifluoromethyl-phenyl)-urea] | – | ≤ 10 | ≤ 10 | ≤ 10 | – | ≤ 10 | – | – | – | ≤ 10 | – | – | – | ≤ 10

Next, values leading:

IC50 (Jnk1) [µM] | IC50 (c-Raf-1) [µM] | IC50 (Fms) [µM] | IC50 (B-Raf) [µM] | IC50 (Flt1) [µM] | IC50 (B-Raf V600E) [µM] | IC50 (Fak) [µM] | IC50 (Btk) [µM] | IC50 (FGFR1) [µM] | IC50 (Kit) [µM] | IC50 (Src) [µM] | IC50 (Ret) [µM] | IC50 (Jnk3) [µM] | IC50 (Jnk2) [µM] | Structure (SMILES)
≤ 10 | ≤ 10 | ≤ 10 | ≤ 10 | ≤ 10 | ≤ 10 | ≤ 10 | ≤ 10 | ≤ 10 | ≤ 10 | ≤ 10 | ≤ 10 | – | – | O=C(Nc1ccc(F)c(C(=O)c2c[nH]c3ncc(-c4cccnc4)cc23)c1F)OCc1ccccc1 [Compound P-0302, [2,4-Difluoro-3-(5-pyridin-3-yl-1H-pyrrolo[2,3-b]pyridine-3-carbonyl)-phenyl]-carbamic acid benzyl ester]
≤ 10 | – | ≤ 10 | ≤ 10 | ≤ 10 | ≤ 10 | ≤ 10 | ≤ 10 | ≤ 10 | ≤ 10 | ≤ 10 | – | – | – | CCCS(=O)(=O)Nc1ccc(F)c(C(=O)c2c[nH]c3ncc(-c4cccc(C(=O)O)c4)cc23)c1F [Compound P-1266, 3-{3-[2,6-Difluoro-3-(propane-1-sulfonylamino)-benzoyl]-1H-pyrrolo[2,3-b]pyridin-5-yl}-benzoic acid]
– | ≤ 10 | ≤ 10 | ≤ 10 | – | ≤ 10 | ≤ 10 | ≤ 10 | ≤ 10 | ≤ 10 | ≤ 10 | – | – | – | COc1ccc(F)c(C(=O)c2c[nH]c3ncc(-c4cccnc4)cc23)c1F [Compound P-1388, (2,6-Difluoro-3-methoxy-phenyl)-(5-pyridin-3-yl-1H-pyrrolo[2,3-b]pyridin-3-yl)-methanone]
≤ 10 | – | ≤ 10 | ≤ 10 | ≤ 10 | ≤ 10 | ≤ 10 | ≤ 10 | ≤ 10 | ≤ 10 | ≤ 10 | – | ≤ 10 | – | CCNC(=O)COc1ccc(F)c(Cc2c[nH]c3ncc(-c4cccnc4)cc23)c1F [Compound P-1475, 2-[2,4-Difluoro-3-(5-pyridin-3-yl-1H-pyrrolo[2,3-b]pyridin-3-ylmethyl)-phenoxy]-N-ethyl-acetamide]
– | – | ≤ 10 | ≤ 10 | – | ≤ 10 | ≤ 10 | ≤ 10 | ≤ 10 | – | ≤ 10 | – | ≤ 10 | – | O=C(c1c(F)cccc1F)c1c[nH]c2ncc(-c3cccnc3)cc12 [Compound P-1485]
– | – | ≤ 10 | – | ≤ 10 | ≤ 10 | – | – | – | ≤ 10 | – | – | – | ≤ 10 | O=C(Nc1ccc(F)c(Cc2c[nH]c3ncc(Cl)cc23)c1F)NC1CCCC1 [Compound P-1575, 1-[3-(5-Chloro-1H-pyrrolo[2,3-b]pyridin-3-ylmethyl)-2,4-difluoro-phenyl]-3-cyclopentyl-urea]
– | – | ≤ 10 | ≤ 10 | – | ≤ 10 | – | – | – | – | – | – | – | ≤ 10 | O=C(Nc1cccc(C(=O)c2c[nH]c3ncc(-c4cccnc4)cc23)c1)Nc1cccc(C(F)(F)F)c1F [Compound P-1728, 1-(2-Fluoro-3-trifluoromethyl-phenyl)-3-[3-(5-pyridin-3-yl-1H-pyrrolo[2,3-b]pyridine-3-carbonyl)-phenyl]-urea]
